Drawing on patent publication US20250011288A1 (BRISTOL-MYERS SQUIBB COMPANY, priority 2021, published 2025), this text covers EC50 for 12 molecules.

Molecules are shown by their SMILES.

The target of this assay is T1, human RXFP1 (Homo sapiens, UniProt Q9HBX9).
T1 construct: expressed in transfected cells
T1 sequence (Q9HBX9 1-757): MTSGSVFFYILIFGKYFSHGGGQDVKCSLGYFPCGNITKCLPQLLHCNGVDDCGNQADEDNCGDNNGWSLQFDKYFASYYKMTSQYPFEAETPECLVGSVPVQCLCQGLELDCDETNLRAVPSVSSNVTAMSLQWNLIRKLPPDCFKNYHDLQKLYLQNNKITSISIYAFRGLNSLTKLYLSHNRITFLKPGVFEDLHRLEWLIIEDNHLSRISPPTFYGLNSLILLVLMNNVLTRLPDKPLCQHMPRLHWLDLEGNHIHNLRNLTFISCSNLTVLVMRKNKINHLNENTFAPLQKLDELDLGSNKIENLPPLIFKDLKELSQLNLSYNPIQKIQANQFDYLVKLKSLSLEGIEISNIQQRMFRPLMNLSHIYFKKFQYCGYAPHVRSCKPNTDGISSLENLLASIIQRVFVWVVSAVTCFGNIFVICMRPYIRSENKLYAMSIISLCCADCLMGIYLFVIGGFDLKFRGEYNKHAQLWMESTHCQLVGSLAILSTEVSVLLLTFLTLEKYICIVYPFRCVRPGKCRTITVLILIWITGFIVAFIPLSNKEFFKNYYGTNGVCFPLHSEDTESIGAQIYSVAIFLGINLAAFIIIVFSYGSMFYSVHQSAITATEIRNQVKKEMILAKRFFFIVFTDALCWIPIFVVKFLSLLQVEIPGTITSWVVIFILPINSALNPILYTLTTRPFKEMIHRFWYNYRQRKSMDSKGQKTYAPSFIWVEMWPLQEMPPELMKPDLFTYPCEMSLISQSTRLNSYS
Kind of assay: human RXFP1 (hRXFP1) HEK293 cAMP assay (HTRF). Format: cell-based. Conditions: HEK293 cells stably expressing human RXFP1, 30 min at room temperature. Put shortly: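 HEK293 cells stably expressing human RXFP1 (1500 cells/well) in HBSS/20 mM HEPES/0.05% BSA/0.5 mM IBMX, treated with compound (0.010 nM–50 µM final, 2% DMSO) for 30 min at room temperature. Intracellular cAMP read by HTRF; potency from 4-parameter logistic fit of cAMP versus concentration.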
(In general: cAMP levels reflect the balance of adenylyl cyclase and phosphodiesterase activity.)

Regarding `COc1ncc(-c2cc([C@H](OC(=O)NC3CC3)C(F)(F)F)ccc2F)cc1C(=O)N[C@H]1[C@@H](C(=O)Nc2ccc(F)c(C(F)(F)F)c2)[C@H]2CC[C@@H]1/C2=C\C1CC(F)(F)C1` [Example 167, (1S)-1-[3-(5-{[(1R,2R,3S,4R, 7Z)-7-[(3,3-difluorocyclobutyl)methylidene]-3-{[4-fluoro-3-(trifluoromethyl)phenyl]carbamoyl}bicyclo[2.2.1]heptan-2-yl]carbamoyl}-6-methoxypyridin-3-yl)-4-fluorophenyl]-2,2,2-trifluoroethyl N-cyclopropyl-carbamate], the EC50 – broadly, the concentration giving half of the maximal effect – was 1.7 nM. That is a single-digit nanomolar value.

Consider `COc1ncc(-c2cc([C@H](OC(=O)NC3CCC3)C(F)(F)F)ccc2F)cc1C(=O)N[C@@H]1C2CCC(/C2=C/CCC(F)(F)F)[C@@H]1C(=O)Nc1ccc(F)c(C(F)(F)F)c1` (stereo partly drawn) [Example 168, (1S)-2,2,2-trifluoro-1-[4-fluoro-3-(5-{[(2R,3S,7Z)-3-{[4-fluoro-3-(trifluoromethyl)phenyl]carbamoyl}-7-(4,4,4-trifluorobutylidene)bicyclo[2.2.1]heptan-2-yl]carbamoyl}-6-methoxypyridin-3-yl)phenyl]ethyl N-cyclobutyl-carbamate], for which the EC50 worked out at 5.3 nM.

On to `COc1ncc(-c2cc([C@H](OC(=O)NC3CCC3)C(F)(F)F)ccc2F)cc1C(=O)N[C@@H]1C2CCC(/C2=C/C2CC(F)(F)C2)[C@@H]1C(=O)Nc1ccc(F)c(C(F)(F)F)c1` (stereo partly drawn) [Example 169, (1S)-1-[3-(5-{[(2R,3S,7Z)-7-[(3,3-difluorocyclobutyl)methylidene]-3-{[4-fluoro-3-(trifluoromethyl)phenyl]carbamoyl}bicyclo[2.2.1]heptan-2-yl]carbamoyl}-6-methoxypyridin-3-yl)-4-fluorophenyl]-2,2,2-trifluoroethyl N-cyclobutyl-carbamate], for which a half-maximal response (EC50) required 7.9 nM. The EC50 values of the last two molecules are within 1.5-fold of each other.

For the molecule `COc1ncc(C2=NOC3CC(C(O)C(F)(F)F)CC23)cc1C(=O)N[C@H]1[C@@H](C(=O)N[C@H](C)C2(C)CC2)[C@H]2CC[C@@H]1/C2=C\C1CC(F)(F)C1` (stereo partly drawn) [Example 170, N-[(1R,2R,3S,4R, 7Z)-7-[(3,3-difluorocyclobutyl)methylidene]-3-{[(1R)-1-(1-methylcyclo-propyl)ethyl]carbamoyl}bicyclo[2.2.1]heptan-2-yl]-2-methoxy-5-[5-(2,2,2-trifluoro-1-hydroxyethyl)-3aH,4H,5H,6H, 6aH-cyclopenta[d] [1,2]oxazol-3-yl]pyridine-3-carboxamide], the EC50 is 3.3 nM.

`COc1ncc(C2=NOC3CC(C(OC(=O)NC4CCC4)C(F)(F)F)CC23)cc1C(=O)N[C@@H]1C2CCC(/C2=C/C2CC2)[C@@H]1C(=O)Nc1ccc(F)c(C(F)(F)F)c1` (stereo partly drawn) [Example 171, 1-[3-(5-{[(2R,3S,7Z)-7-(cyclopropyl-methylidene)-3-{[4-fluoro-3-(trifluoromethyl)phenyl]carbamoyl}bicyclo[2.2.1]heptan-2-yl]carbamoyl}-6-methoxypyridin-3-yl)-3aH,4H,5H,6H, 6aH-cyclopenta[d][1,2]oxazol-5-yl]-2,2,2-trifluoroethyl N-cyclobutyl-carbamate] returned an EC50 of 7.9 nM. This EC50 is about 2.4-fold higher than that of the molecule before.

`COc1ncc(C2=NOC3CC(CO)CC23)cc1C(=O)N[C@H]1[C@@H](C(=O)Nc2ccc(F)c(C(F)(F)F)c2)[C@H]2CC[C@@H]1/C2=C\C1CCCC1` (stereo partly drawn) [Example 172, N-[(1R,2R,3S,4R, 7Z)-7-(cyclopentyl-methylidene)-3-{[4-fluoro-3-(trifluoromethyl)phenyl]carbamoyl}bicyclo[2.2.1]heptan-2-yl]-5-[5-(hydroxymethyl) 3aH,4H,5H,6H, 6aH-cyclopenta[d][1,2]oxazol-3-yl]-2-methoxypyridine-3-carboxamide] displayed an EC50 of 4.3 nM.

For `COc1ncc(C2=NOC3CC(C(O)C(F)(F)F)CC23)cc1C(=O)N[C@H]1[C@@H](C(=O)Nc2ccc(F)c(C(F)(F)F)c2)[C@H]2CC[C@@H]1/C2=C\C1CCCC1` (stereo partly drawn) [Example 173, N-[(1R,2R,3S,4R, 7Z)-7-(cyclopentyl-methylidene)-3-{[4-fluoro-3-(trifluoromethyl)phenyl]carbamoyl}bicyclo[2.2.1]heptan-2-yl]-2-methoxy-5-[5-(2,2,2-trifluoro-1-hydroxyethyl)-3aH,4H,5H,6H, 6aH-cyclopenta[d][1,2]oxazol-3-yl]pyridine-3-carboxamide], the EC50 came to 0.6 nM.

On to `COc1ncc(C2=NOC3CC(C(OC(=O)Nc4ccccc4)C(F)(F)F)CC23)cc1C(=O)N[C@H]1[C@@H](C(=O)Nc2ccc(F)c(C(F)(F)F)c2)[C@H]2CC[C@@H]1/C2=C\C1CCCC1` (stereo partly drawn) [Example 174, 1-[3-(5-{[(1R,2R,3S,4R, 7Z)-7-(cyclopentyl-methylidene)-3-{[4-fluoro-3-(trifluoromethyl)phenyl]carbamoyl}bicyclo[2.2.1]heptan-2-yl]carbamoyl}-6-methoxypyridin-3-yl)-3aH,4H,5H,6H, 6aH-cyclopenta[d][1,2]oxazol-5-yl]-2,2,2-trifluoroethyl N-phenylcarbamate], for which it took 1.9 nM to reach a half-maximal effect (EC50). This EC50 lies about 3.2-fold higher than the previous one.

Regarding `CC(O)C1CC2ON=C(c3cc4c(c(C(=O)N[C@H]5[C@@H](C(=O)Nc6ccc(F)c(C(F)(F)F)c6)[C@H]6CC[C@@H]5/C6=C\C5CC5)c3)OC(C)(C)C4)C2C1` (stereo partly drawn) [Example 175, N-[(1R,2R,3S,4R, 7Z)-7-(cyclopropyl-methylidene)-3-{[4-fluoro-3-(trifluoromethyl)phenyl]carbamoyl}bicyclo[2.2.1]heptan-2-yl]-5-[5-(1-hydroxyethyl)-3aH,4H,5H,6H, 6aH-cyclopenta[d][1,2]oxazol-3-yl]-2,2-dimethyl-2,3-dihydro-1-benzofuran-7-carboxamide], the EC50 was determined as 7.8 nM.

`CC(O)C1CC2ON=C(c3cc4c(c(C(=O)N[C@H]5[C@@H](C(=O)N[C@H](C)C6(C)CC6)[C@H]6CC[C@@H]5/C6=C\C5CC5)c3)OC(C)(C)C4)C2C1` (stereo partly drawn) [Example 176, N-[(1R,2R,3S,4R, 7Z)-7-(cyclopropyl-methylidene)-3-{[(1R)-1-(1-methylcyclopropyl)ethyl]carbamoyl}bicyclo[2.2.1]heptan-2-yl]-5-[5-(1-hydroxyethyl)-3aH,4H,5H,6H, 6aH-cyclopenta[d][1,2]oxazol-3-yl]-2,2-dimethyl-2,3-dihydro-1-benzofuran-7-carboxamide] registered an EC50 of 6 nM. The EC50 values of the last two molecules are within 1.5-fold of each other.

The molecule `COc1ncc(C2=NOC3CC(C)(CO)CC23)cc1C(=O)N[C@H]1[C@@H](C(=O)N[C@H](C)C2(C)CC2)[C@H]2CC[C@@H]1/C2=C\C1CC1` (stereo partly drawn) [Example 177, N-[(1R,2R,3S,4R, 7Z)-7-(cyclopropyl-methylidene)-3-{[(1R)-1-(1-methylcyclo-propyl)ethyl]carbamoyl}bicyclo[2.2.1]heptan-2-yl]-5-[5-(hydroxymethyl)-5-methyl-3aH,4H,5H,6H, 6aH-cyclopenta[d][1,2]oxazol-3-yl]-2-methoxypyridine-3-carboxamide] gave an EC50 of 3.3 nM. This EC50 lies about 1.8-fold lower than the previous one.

Molecule `COc1ncc(C2=NOC3CN(CCS(C)(=O)=O)CC23)cc1C(=O)N[C@H]1[C@@H](C(=O)Nc2ccc(F)c(C(F)(F)F)c2)[C@H]2CC[C@@H]1/C2=C\C1CC1` (stereo partly drawn) [Example 178, N-[(1R,2R,3S,4R, 7Z)-7-(cyclopropyl-methylidene)-3-{[4-fluoro-3-(trifluoromethyl)phenyl]carbamoyl}bicyclo[2.2.1]heptan-2-yl]-5-[5-(2-methanesulfonylethyl)-3aH,4H,5H,6H, 6aH-pyrrolo[3,4-d][1,2]oxazol-3-yl]-2-methoxypyridine-3-carboxamide] had an EC50 of 1.6 nM.
